Measurements: PMC9820303, “^αN-Acetyl β-Endorphin Is an Endogenous Ligand of σ1Rs That Regulates Mu-Opioid Receptor Signaling by Exchanging G Proteins for σ2Rs in σ1R Oligomers” (International Journal of Molecular Sciences, 2022)

Test system: CD1 mice (wild-type and σ1R−/−)
Assay: Supraspinal analgesia, warm water (52 °C) tail-flick test
Format: in vivo, mouse
Details: for effect of exogenous σ1R ligands on β-End 1–31 analgesia: 3 nmol icv 20 min before 0.5 nmol β-End 1–31 icv; for effect on DAMGO analgesia: icv 20 min before DAMGO (0.1 nmol icv), evaluated 15 min after DAMGO; for effect on analgesia of the DOR agonists DPDPE and D-Ala^2 Deltorphin II: icv 20 min before DPDPE (10 nmol) or D-Ala2-deltorphin II (10 nmol) icv; for effect of C-terminal peptides on β-End 1–31 and morphine analgesia: icv 20 min before 0.5 nmol β-End 1–31 or 10 nmol morphine icv; for effect on β-End 1–31 analgesia, nonphysiological fragments: 1 nmol icv 20 min before 0.5 nmol β-End 1–31 icv, 6 mice
Description: Upper panel: the withdrawal thresholds of the contralateral and ipsilateral paws were measured before (indicated as 0) and up to 14 days after surgery. […] Middle panel: 0.3 and 3 nmol of ^αN-acetyl β-End 1–31 were administered icv 7 days after surgery, and the nociceptive threshold was evaluated at the indicated postinjection intervals (in minutes). For every time interval studied in min or days, * indicates a significant difference from the group that received saline instead of ^αN-acetyl β-End 1–31; ϕ significant difference from the effect of 3 nmol ^αN-acetyl β-End 1–31. […] All data are presented as the mean ± SD of six mice. ANOVA followed by the Holm–Sidak multiple comparisons test, p < 0.05, 1-β > 0.80. […] Upper panel: wild-type mice were injected icv with saline, ^αN-acetyl β-End 1–31 (1 nmol/mouse) or the combination of the σ1R agonist PPCC (3 nmol/mouse) plus ^αN-acetyl β-End 1–31 20 min before morphine and β-End 1–31. Analgesia was evaluated by the warm water (52 °C) tail-flick test at the interval postinjection corresponding to their peak effect, 30 min. Lower panel: σ1R^−/− mice received 1 nmol ^αN-acetyl β-End 1–31, 20 min before morphine and β-End 1–31 and analgesia was evaluated as described above. Eight mice were used per strain and treatment. * Significant difference with respect to the group treated with morphine or β-End 1–31 alone. ANOVA followed by the Holm–Sidak multiple comparisons test, p < 0.05, 1-β > 0.80.
Figure 3 Effect of physiological β-End 1–31 derivatives on morphine and β-End 1–31 analgesia. […] (A) The mice were icv-injected with 25 nmol of β-End 1–26, β-End 1–27 and ^αN-acetylated derivatives 20 min before icv 0.5 nmol β-End 1–31. Analgesia was determined at the indicated postinjection intervals. (B) CD1 wild-type and σ1R^−/− mice were administered C terminal peptide sequences 27–31, 28–31 and 30–31 of β-End 1–31 through an icv injection 20 min before 0.5 nmol of the whole β-End 1–31 and morphine (10 nmols) were injected icv. […] (C) A series of exogenous σ1R ligands (3 nmol) were icv-injected 20 min before 0.5 nmol β-End 1–31 was administered via icv in wild-type mice. The σ1R antagonist S1RA was also icv-injected before β-End 1–31 was administered icv in σ1R^−/− mice. (D) The effects of several doses of S1RA on morphine analgesia were studied in wild-type and σ1R^−/− mice. […] ANOVA followed by the Holm–Sidak multiple comparisons test, p < 0.05, 1-β > 0.80.
(A) The effect of σ1R deletion on opioid- and cannabinoid-induced analgesia. Analgesic compounds were icv-injected into wild-type and σ1R^−/− mice, and analgesia was evaluated 30 min after morphine (3 nmol) and β-End 1–31 (0.5 nmol), 15 min after DAMGO (0.1 nmol) and DPDPE (10 nmol) and 10 min after WIN55,212-2 (15 nmol). The bars are the mean ± SD of eight mice per strain and treatment. * Significant difference with respect to the effect of the analgesic substance in the wild-type group. ANOVA followed by the Holm–Sidak multiple comparisons test, p < 0.05, 1-β > 0.80. (B) Coprecipitation of G proteins with MORs. Solubilized mouse brain cortical membranes enriched in synaptosomes (SBM) from CD1 wild-type (WT) and σ1R^−/− mice were solubilized with sonication in the presence of 1% NP-40. Non-soluble debris was eliminated, and the samples were then incubated overnight at 4 °C with affinity-purified biotinylated IgGs that were raised against extracellular regions of the MOR. Protein complexes that were immunoprecipitated with streptavidin agarose were extensively washed and then resolved by SDS-PAGE.

For Br.Br.CN(C)CCN(C)CCc1ccc(Cl)c(Cl)c1 [BD1047, N′-[2-(3,4-dichlorophenyl)ethyl]-N,N,N′-trimethylethane-1,2-diamine;dihydrobromide, reference compound], the “effect of exogenous σ1R ligands on β-End 1–31 analgesia” value (from here on “effect of exogenous σ1R ligands”) (wild-type mice) was “diminished”.

In the case of COC(=O)[C@]1(c2ccc(C)cc2)C[C@@H]1CN1CCC(O)(c2ccccc2)CC1 [PPCC, (1R,2S/1S,2R)-2-[4-hydroxy-4-phenylpiperidin-1-yl)methyl]-1-(4-methylphenyl) cyclopropanecarboxylate, reference compound], the “effect of exogenous σ1R ligands” value (wild-type mice) is reported as “did not alter the effect of β-End 1–31”, the “effect on the antagonist activity of β-End C-terminal peptides” value (PPCC 3 nmol icv 10 min before the β-End C-terminal peptides) is reported as “prevented” and the “effect on the impairment of morphine and β-End 1–31 analgesia by ^αN-acetyl β-End 1–31” value (PPCC 3 nmol/mouse icv plus ^αN-acetyl β-End 1–31, wild-type mice) is reported as “prevented the impairing effects”.

With Cl.O=C(OCCN1CCOCC1)C1(c2ccccc2)CCCCC1 [PRE084, 2-(4-morpholinethyl)-1-phenylcyclohexanecarboxylate hydrochloride, reference compound] the “effect of exogenous σ1R ligands” value (wild-type mice) was “did not alter the effect of β-End 1–31”.

In the case of Cc1cc(OCCN2CCOCC2)nn1-c1ccc2ccccc2c1 [S1RA], the “effect of exogenous σ1R ligands” value (wild-type mice) is reported as “diminished”, the “effect on morphine analgesia, 3 nmol” value (3 nmol icv, wild-type mice) is reported as “produced the maximum increase” and the “effect on morphine analgesia, 10 nmol” value (10 nmol icv, wild-type mice) is reported as “barely altered morphine effects”. For the same compound, the “effect on DAMGO analgesia” value was “enhanced DAMGO analgesia”, the “effect on analgesia of the DOR agonists DPDPE and D-Ala^2 Deltorphin II” value was “neither ^αN-acetyl β-End 1–31 nor S1RA altered the analgesic effects” and the “effect on morphine analgesia” value (icv before morphine, wild-type mice) was “enhanced morphine analgesia”.

In the case of “KKGE [β-End 28–31, C-terminal tetrapeptide of β-End 1–31]”, the “effect of C-terminal peptides on β-End 1–31 and morphine analgesia” value (wild-type mice) is reported as “reduced the analgesic activity of β-End 1–31 and morphine”.

In the case of “YKKGE [β-End 27–31, C-terminal pentapeptide of β-End 1–31]”, the “effect of C-terminal peptides on β-End 1–31 and morphine analgesia” value (wild-type mice) is reported as “reduced the analgesic activity of β-End 1–31 and morphine”.

With “^αN-acetyl β-End 1–31: β-End 1–31 acetylated at N terminal Y1, α position” the “effect on morphine and β-End 1–31 analgesic potency, 1 pmol” value (1 pmol icv 30 min before morphine and β-End 1–31, wild-type mice) was “significant reductions in their analgesic potency”, the “effect on DAMGO analgesia” value was “enhanced DAMGO analgesia” and the “effect on analgesia of the DOR agonists DPDPE and D-Ala^2 Deltorphin II” value was “neither ^αN-acetyl β-End 1–31 nor S1RA altered the analgesic effects”. For the same compound, the “icv dose at which the regulatory effects on analgesia reached a maximum” value (icv, persisted at 1 pmol or 1 nmol) was 1 to 10 fmols, the “effect on DAMGO and clonidine analgesia” value (increasing icv doses 20 min before DAMGO (0.1 nmol) or clonidine (150 nmol) icv, wild-type mice) was “increased” and the “effect on morphine and β-End 1–31 analgesia in σ1R−/− mice” value (σ1R−/− mice, icv before the opioids) was “not altered”.

“β-End 6–31: β-End 1–31 lacking the N-terminal met-enkephalin 1–5 sequence (TSEKSQTPLVTLFKNAIIKNAYKKGE; Beta-endorphin; UniProt P01189 242-267, looked up, fragment)” was tested, and the “effect on β-End 1–31 analgesia, nonphysiological fragments” value was “not produced”.

For “β-End 22–31: nonphysiological C-terminal sequence of β-End 1–31 (IIKNAYKKGE; Beta-endorphin; UniProt P01189 258-267, looked up, fragment)”, the “effect on β-End 1–31 analgesia, nonphysiological fragments” value was “reduced β-End 1–31 analgesia”.
